Measured values as given in patent US20180252712A1, “RECEPTOR FOR NOROVIRUS AND USES THEREOF” (priority 2017, published 2018).

Columns and labels:
[1] = test system: MNoV^CW3; assay: CRISPR screen in BV2-Cas9 cells, sgRNA enrichment after MNoV^CW3 infection; type: cell-based, murine norovirus; conditions: for log2 fold enrichment after MNV infection relative to mock infected cells, CW3 MOI 0.05: MNoV^CW3, MOI 0.05, ten days post-infection; for log2 fold enrichment after MNV infection relative to mock infected cells, CW3 MOI 5: MNoV^CW3, MOI 5, ten days post-infection
Experimental: (§1) BV2 cells were transduced with pXPR_101 (Addgene plasmid 52962) and selected with blasticidin for eleven days. Cas9 activity was assessed by transducing parental BV2 or BV2-Cas9 cells with pXPR_011 (Addgene plasmid 59702), expresses eGFP and a sgRNA targeting eGFP at an MOI<1 [1]. Cells were transduced for 2 days and subsequently, selected for five days with puromycin and the frequency of eGFP expression was assessed by flow cytometry. The mouse ASIAGO sgRNA CRISPR library contains six independent genome wide pools which each pool containing a unique sgRNA targeting each of 20,077 mouse genes. Four ASIAGO pools were independently used to generate the BV2 library (Doench et al submitted). Each ASIAGO pool was delivered by lentiviral transduction of 5×10^7 BV2 cells at an MOI ˜0.2. This equates to 1×10^7 transduced cells, which is sufficient for the integration of each sgRNA 500 independent times. Two days post transduction, puromycin was added to the media and transduced cells were selected for five days. For each experimental condition, 1×10^7 BV2-Cas9 cells containing sgRNAs were seeded in a T175 tissue culture flask. Cells were infected with either MNoV^CW3 or MNoV^CR6 at MOls of 0.05 and 5. Mock infected cells were harvested 48 hrs after seeding and served as a reference for sgRNA enrichment analysis. Ten days post-infection genomic DNA was isolated from surviving cells using a Qiamp DNA mini kit according to manufacturer instructions (Qiagen).
(§2) Illumina sequencing and STARS analysis was performed as described previously (Doench et al, in press). Briefly, genomic DNA was aliquoted into multiple wells of a 96-well plate with up to 10 μg of DNA in 50 μl total volume. A PCR mastermix consisting of ExTaq DNA polymerase (Clontech), ExTaq buffer, dNTP, P5 stagger primer, and water was generated. 40 μl of PCR master mix, and 10 μl of a barcoded primer was added to each well containing 50 μl of DNA. Samples were PCR amplified as follows: 95° C. for 1 min., followed by 28 cycles of 94° C. for 30 sec., 52.5° C. for 30 sec., 72° C. for 30 sec. with a final 10 min. at 72° C. PCR product was purified with Agencourt AMPure XP SPRI beads according to the manufacture's protocol (Beckman Coluter). Samples were sequenced on an Illumina HiSeq 2000. Barcodes in the P7 primer were deconvuluted and the sgRNA sequence was mapped to a reference file of sgRNAs in the ASIAGO library. To normalize for different numbers of reads per condition, read counts per sgRNA were normalized to 10^7 total reads per sample. This normalized value was then log-2 transformed. sgRNAs that were not sequenced were arbitrarily assigned a read count of 1. sgRNA frequencies were then analyzed using STARS software, which is available at broadinstitute.org/rnai/public/software/index (Doench et al, in press). STARS computes a score for each gene of rank-ordered sgRNA hits that was above […] of total sequenced sgRNAs. A STAR score was only assigned to genes that scored above this threshold in at least two of four independent genome wide pools.

[2] = test system: MNoV^CR6; assay: CRISPR screen in BV2-Cas9 cells, sgRNA enrichment after MNoV^CR6 infection; type: cell-based, murine norovirus; conditions: for log2 fold enrichment after MNV infection relative to mock infected cells, CR6 MOI 0.05: MNoV^CR6, MOI 0.05, ten days post-infection; for log2 fold enrichment after MNV infection relative to mock infected cells, CR6 MOI 5: MNoV^CR6, MOI 5, ten days post-infection
Experimental: as §1, §2

Substance: GCAGCAAATCCAAATCTCAG: sgRNA used in screen, matches CD300lb (listed as DNA, chemistry not given here)
- log2 fold enrichment after MNV infection relative to mock infected cells, CW3 MOI 0.05 [1]: −5.8 log2 fold enrichment
- log2 fold enrichment after MNV infection relative to mock infected cells, CW3 MOI 5 [1]: −5.8 log2 fold enrichment
- log2 fold enrichment after MNV infection relative to mock infected cells, CR6 MOI 0.05 [2]: −5.8 log2 fold enrichment
- log2 fold enrichment after MNV infection relative to mock infected cells, CR6 MOI 5 [2]: −5.8 log2 fold enrichment

Substance: GGATCCAGTCACAGGTCCAG: sgRNA used in screen, matches CD300lf, CD300lh (listed as DNA, chemistry not given here)
- log2 fold enrichment after MNV infection relative to mock infected cells, CW3 MOI 0.05 [1]: 0.0 log2 fold enrichment
- log2 fold enrichment after MNV infection relative to mock infected cells, CW3 MOI 5 [1]: 12.5 log2 fold enrichment
- log2 fold enrichment after MNV infection relative to mock infected cells, CR6 MOI 0.05 [2]: 0.0 log2 fold enrichment
- log2 fold enrichment after MNV infection relative to mock infected cells, CR6 MOI 5 [2]: 12.6 log2 fold enrichment

Substance: CGTAGCCAGACACAGAGCCA: sgRNA used in screen, matches CD300le (listed as DNA, chemistry not given here)
- log2 fold enrichment after MNV infection relative to mock infected cells, CW3 MOI 0.05 [1]: −5.9 log2 fold enrichment
- log2 fold enrichment after MNV infection relative to mock infected cells, CW3 MOI 5 [1]: −5.5 log2 fold enrichment
- log2 fold enrichment after MNV infection relative to mock infected cells, CR6 MOI 0.05 [2]: −5.8 log2 fold enrichment
- log2 fold enrichment after MNV infection relative to mock infected cells, CR6 MOI 5 [2]: −5.9 log2 fold enrichment

Substance: CTAGCTACTACTCTGATAAC: sgRNA used in screen, matches CD300lf (listed as DNA, chemistry not given here)
- log2 fold enrichment after MNV infection relative to mock infected cells, CW3 MOI 0.05 [1]: 0.0 log2 fold enrichment
- log2 fold enrichment after MNV infection relative to mock infected cells, CW3 MOI 5 [1]: 11.0 log2 fold enrichment
- log2 fold enrichment after MNV infection relative to mock infected cells, CR6 MOI 0.05 [2]: 0.0 log2 fold enrichment
- log2 fold enrichment after MNV infection relative to mock infected cells, CR6 MOI 5 [2]: 9.8 log2 fold enrichment

Substance: CCTGTGATCCAGAAGAGAAA: sgRNA used in screen, matches CD300lf (listed as DNA, chemistry not given here)
- log2 fold enrichment after MNV infection relative to mock infected cells, CW3 MOI 0.05 [1]: 9.6 log2 fold enrichment
- log2 fold enrichment after MNV infection relative to mock infected cells, CW3 MOI 5 [1]: 9.6 log2 fold enrichment
- log2 fold enrichment after MNV infection relative to mock infected cells, CR6 MOI 0.05 [2]: 9.6 log2 fold enrichment
- log2 fold enrichment after MNV infection relative to mock infected cells, CR6 MOI 5 [2]: 9.6 log2 fold enrichment

Substance: CTACGCAAATCAGGACCAGG: sgRNA used in screen, matches CD300lg (listed as DNA, chemistry not given here)
- log2 fold enrichment after MNV infection relative to mock infected cells, CW3 MOI 0.05 [1]: −6.4 log2 fold enrichment
- log2 fold enrichment after MNV infection relative to mock infected cells, CW3 MOI 5 [1]: −6.4 log2 fold enrichment
- log2 fold enrichment after MNV infection relative to mock infected cells, CR6 MOI 0.05 [2]: −6.4 log2 fold enrichment
- log2 fold enrichment after MNV infection relative to mock infected cells, CR6 MOI 5 [2]: −6.4 log2 fold enrichment

Substance: GTTACTGTGAACATTGGCCC: sgRNA used in screen, matches CD300lf (listed as DNA, chemistry not given here)
- log2 fold enrichment after MNV infection relative to mock infected cells, CW3 MOI 0.05 [1]: 0.0 log2 fold enrichment
- log2 fold enrichment after MNV infection relative to mock infected cells, CW3 MOI 5 [1]: 12.1 log2 fold enrichment
- log2 fold enrichment after MNV infection relative to mock infected cells, CR6 MOI 0.05 [2]: 0.0 log2 fold enrichment
- log2 fold enrichment after MNV infection relative to mock infected cells, CR6 MOI 5 [2]: 12.0 log2 fold enrichment

Substance: CATAGGTCACTGTAAAGGTG: sgRNA used in screen, matches CD300la (listed as DNA, chemistry not given here)
- log2 fold enrichment after MNV infection relative to mock infected cells, CW3 MOI 0.05 [1]: −7.2 log2 fold enrichment
- log2 fold enrichment after MNV infection relative to mock infected cells, CW3 MOI 5 [1]: −7.2 log2 fold enrichment
- log2 fold enrichment after MNV infection relative to mock infected cells, CR6 MOI 0.05 [2]: −7.2 log2 fold enrichment
- log2 fold enrichment after MNV infection relative to mock infected cells, CR6 MOI 5 [2]: −7.2 log2 fold enrichment

Substance: CTCCACGTAGGTACACCGCA: sgRNA used in screen, matches CD300lg (listed as DNA, chemistry not given here)
- log2 fold enrichment after MNV infection relative to mock infected cells, CW3 MOI 0.05 [1]: −5.8 log2 fold enrichment
- log2 fold enrichment after MNV infection relative to mock infected cells, CW3 MOI 5 [1]: −5.3 log2 fold enrichment
- log2 fold enrichment after MNV infection relative to mock infected cells, CR6 MOI 0.05 [2]: −5.6 log2 fold enrichment
- log2 fold enrichment after MNV infection relative to mock infected cells, CR6 MOI 5 [2]: −5.8 log2 fold enrichment

Substance: GGTCGTCCCTGATGGACACA: sgRNA used in screen, matches CD300lh (listed as DNA, chemistry not given here)
- log2 fold enrichment after MNV infection relative to mock infected cells, CW3 MOI 0.05 [1]: 12.0 log2 fold enrichment
- log2 fold enrichment after MNV infection relative to mock infected cells, CW3 MOI 5 [1]: 7.8 log2 fold enrichment
- log2 fold enrichment after MNV infection relative to mock infected cells, CR6 MOI 0.05 [2]: 12.0 log2 fold enrichment
- log2 fold enrichment after MNV infection relative to mock infected cells, CR6 MOI 5 [2]: 11.0 log2 fold enrichment

Substance: GAGTGTGTCATGTCGATATG: sgRNA used in screen, matches CD300la (listed as DNA, chemistry not given here)
- log2 fold enrichment after MNV infection relative to mock infected cells, CW3 MOI 0.05 [1]: −6.2 log2 fold enrichment
- log2 fold enrichment after MNV infection relative to mock infected cells, CW3 MOI 5 [1]: −6.2 log2 fold enrichment
- log2 fold enrichment after MNV infection relative to mock infected cells, CR6 MOI 0.05 [2]: −6.2 log2 fold enrichment
- log2 fold enrichment after MNV infection relative to mock infected cells, CR6 MOI 5 [2]: −6.2 log2 fold enrichment

Substance: ACAGGTCCAGAGGAGGTGAG: sgRNA used in screen, matches CD300ld, CD300lf, CD300lh (listed as DNA, chemistry not given here)
- log2 fold enrichment after MNV infection relative to mock infected cells, CW3 MOI 0.05 [1]: 0.0 log2 fold enrichment
- log2 fold enrichment after MNV infection relative to mock infected cells, CW3 MOI 5 [1]: 13.0 log2 fold enrichment
- log2 fold enrichment after MNV infection relative to mock infected cells, CR6 MOI 0.05 [2]: 0.0 log2 fold enrichment
- log2 fold enrichment after MNV infection relative to mock infected cells, CR6 MOI 5 [2]: 13.1 log2 fold enrichment

Substance: GCCCTTGCTACTTACCTGGG: sgRNA used in screen, matches CD300ld (listed as DNA, chemistry not given here)
- log2 fold enrichment after MNV infection relative to mock infected cells, CW3 MOI 0.05 [1]: 0.0 log2 fold enrichment
- log2 fold enrichment after MNV infection relative to mock infected cells, CW3 MOI 5 [1]: −5.5 log2 fold enrichment
- log2 fold enrichment after MNV infection relative to mock infected cells, CR6 MOI 0.05 [2]: 0.0 log2 fold enrichment
- log2 fold enrichment after MNV infection relative to mock infected cells, CR6 MOI 5 [2]: −5.5 log2 fold enrichment

Substance: TGTCACTGTGAAGATGGTGG: sgRNA used in screen, matches CD300lf (listed as DNA, chemistry not given here)
- log2 fold enrichment after MNV infection relative to mock infected cells, CW3 MOI 0.05 [1]: 8.4 log2 fold enrichment
- log2 fold enrichment after MNV infection relative to mock infected cells, CW3 MOI 5 [1]: 13.3^B log2 fold enrichment
- log2 fold enrichment after MNV infection relative to mock infected cells, CR6 MOI 0.05 [2]: 7.2 log2 fold enrichment
- log2 fold enrichment after MNV infection relative to mock infected cells, CR6 MOI 5 [2]: −1.9 log2 fold enrichment

Substance: ACGGAAGTGAGAAAGAAAAG: sgRNA used in screen, matches CD300le (listed as DNA, chemistry not given here)
- log2 fold enrichment after MNV infection relative to mock infected cells, CW3 MOI 0.05 [1]: −6.6 log2 fold enrichment
- log2 fold enrichment after MNV infection relative to mock infected cells, CW3 MOI 5 [1]: −6.6 log2 fold enrichment
- log2 fold enrichment after MNV infection relative to mock infected cells, CR6 MOI 0.05 [2]: −6.6 log2 fold enrichment
- log2 fold enrichment after MNV infection relative to mock infected cells, CR6 MOI 5 [2]: −6.6 log2 fold enrichment
